These results are taken from patent publication US12540131B2 (Merck Sharp & Dohme LLC, priority 2019, dated 2026).

A value given as a limit tells only on which side of the number the result lay.

Chain of GST tagged truncated human mutant G2019S LRRK2 (Q5S007 970-2527 G2019S): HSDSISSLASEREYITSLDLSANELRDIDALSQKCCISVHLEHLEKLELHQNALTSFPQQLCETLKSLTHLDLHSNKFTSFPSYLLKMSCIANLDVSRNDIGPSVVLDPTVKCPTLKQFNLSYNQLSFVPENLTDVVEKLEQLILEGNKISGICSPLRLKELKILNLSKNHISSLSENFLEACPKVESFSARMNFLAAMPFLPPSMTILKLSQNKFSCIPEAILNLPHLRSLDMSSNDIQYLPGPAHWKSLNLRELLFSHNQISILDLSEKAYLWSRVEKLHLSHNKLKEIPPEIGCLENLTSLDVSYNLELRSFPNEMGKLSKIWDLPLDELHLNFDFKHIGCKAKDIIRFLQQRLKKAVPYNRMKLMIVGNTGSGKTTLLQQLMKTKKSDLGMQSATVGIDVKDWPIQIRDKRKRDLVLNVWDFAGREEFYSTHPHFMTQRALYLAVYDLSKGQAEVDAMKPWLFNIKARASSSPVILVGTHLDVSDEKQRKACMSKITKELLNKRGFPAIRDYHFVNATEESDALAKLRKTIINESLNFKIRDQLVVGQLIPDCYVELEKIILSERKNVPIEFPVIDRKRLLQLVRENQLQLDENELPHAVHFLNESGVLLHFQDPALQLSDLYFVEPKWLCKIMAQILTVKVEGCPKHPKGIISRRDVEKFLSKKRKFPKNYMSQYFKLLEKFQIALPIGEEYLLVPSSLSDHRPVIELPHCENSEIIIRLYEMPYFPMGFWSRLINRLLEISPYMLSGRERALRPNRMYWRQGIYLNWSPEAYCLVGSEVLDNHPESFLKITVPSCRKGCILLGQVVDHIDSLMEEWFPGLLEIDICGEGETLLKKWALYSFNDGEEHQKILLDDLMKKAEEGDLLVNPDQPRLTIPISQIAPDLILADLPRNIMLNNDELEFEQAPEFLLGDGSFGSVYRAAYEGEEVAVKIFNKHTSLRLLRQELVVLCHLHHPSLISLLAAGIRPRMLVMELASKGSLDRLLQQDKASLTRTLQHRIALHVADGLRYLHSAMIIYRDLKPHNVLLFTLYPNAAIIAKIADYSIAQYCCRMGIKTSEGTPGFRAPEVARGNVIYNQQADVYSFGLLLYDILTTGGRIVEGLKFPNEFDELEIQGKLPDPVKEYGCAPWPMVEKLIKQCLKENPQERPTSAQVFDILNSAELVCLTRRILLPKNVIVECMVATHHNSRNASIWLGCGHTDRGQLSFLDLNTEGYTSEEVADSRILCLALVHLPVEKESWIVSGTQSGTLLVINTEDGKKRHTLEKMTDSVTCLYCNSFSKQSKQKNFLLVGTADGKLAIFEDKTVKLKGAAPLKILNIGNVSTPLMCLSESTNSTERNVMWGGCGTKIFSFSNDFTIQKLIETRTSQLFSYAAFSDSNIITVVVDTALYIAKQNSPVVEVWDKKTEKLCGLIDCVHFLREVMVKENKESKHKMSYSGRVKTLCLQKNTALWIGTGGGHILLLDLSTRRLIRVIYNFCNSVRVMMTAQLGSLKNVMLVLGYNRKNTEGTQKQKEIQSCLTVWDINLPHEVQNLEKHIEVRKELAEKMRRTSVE

One assay concerns the target GST tagged truncated human mutant G2019S LRRK2 (Homo sapiens (Human), UniProt Q5S007, G2019S). Briefly: LRRK2 Km ATP LanthaScreen Assay. It is filed as biochemical. The note with it: G2019S LRRK2, 134 μM ATP (Km ATP), mean values. An outline of the steps: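 Enzyme (GST-tagged, truncated) was preincubated with compound for 15 min at RT in 50 mM Tris pH 8.5, 10 mM MgCl2, 0.01% Brij-35, 1 mM EGTA, 2 mM DTT and 0.05 mM orthovanadate. Fluorescein-LRRKtide and 134 μM ATP (Km) were then added for 90 min. EDTA and Tb-anti-pERM antibody stopped the reaction; the TR-FRET 520/495 ratio gave 4-parameter IC50s, reported as mean pIC50.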
For orientation: TR-FRET usually uses a lanthanide donor and a delayed reading to cut background.
Regarding `Cc1c(Nc2ncc3cc(Cl)c(C4CCN(C[C@@H](O)c5cc(F)cc(F)c5)CC4)cc3n2)cnn1C1CC1` [Ex-4.197, (1S)-2-(4-{6-chloro-2-[(1-cyclopropyl-5-methyl-1H-pyrazol-4-yl)amino]quinazolin-7-yl}piperidin-1-yl)-1-(3,5-difluorophenyl)ethan-1-ol], the “LRRK2 pIC50” value is listed as 8.76.

`Cc1c(Nc2ncc3cc(Cl)c(C4CCN(C[C@H](O)c5cc(F)cc(F)c5)CC4)cc3n2)cnn1C1CC1` [Ex-4.198, (1R)-2-(4-{6-chloro-2-[(1-cyclopropyl-5-methyl-1H-pyrazol-4-yl)amino]quinazolin-7-yl}piperidin-1-yl)-1-(3,5-difluorophenyl)ethan-1-ol]: the “LRRK2 pIC50” value is listed as 7.88.

Regarding `Cc1c(Nc2ncc3cc(Cl)c(C4CCN(C[C@H](O)c5ccc(F)c(F)c5)CC4)cc3n2)cnn1C1CC1` [Ex-4.199, (1R)-2-(4-{6-chloro-2-[(1-cyclopropyl-5-methyl-1H-pyrazol-4-yl)amino]quinazolin-7-yl}piperidin-1-yl)-1-(3,4-difluorophenyl)ethan-1-ol], the “LRRK2 pIC50” value is recorded as 7.96.

In the case of `Cc1c(Nc2ncc3cc(Cl)c(C4CCN(C[C@@H](O)c5ccc(F)c(F)c5)CC4)cc3n2)cnn1C1CC1` [Ex-4.200, (1S)-2-(4-{6-chloro-2-[(1-cyclopropyl-5-methyl-1H-pyrazol-4-yl)amino]quinazolin-7-yl}piperidin-1-yl)-1-(3,4-difluorophenyl)ethan-1-ol], the “LRRK2 pIC50” value is recorded as 8.76.

Regarding `Cc1c(Nc2ncc3cc(Cl)c(C4CCN(C[C@H](O)c5ccc(F)cc5F)CC4)cc3n2)cnn1C1CC1` [Ex-4.201, (1R)-2-(4-{6-chloro-2-[(1-cyclopropyl-5-methyl-1H-pyrazol-4-yl)amino]quinazolin-7-yl}piperidin-1-yl)-1-(2,4-difluorophenyl)ethan-1-ol], the “LRRK2 pIC50” value was determined as 8.19.

On to `Cc1c(Nc2ncc3cc(Cl)c(C4CCN(C[C@@H](O)c5ccccc5F)CC4)cc3n2)cnn1C1CC1` [Ex-4.202, (1S)-2-(4-{6-chloro-2-[(1-cyclopropyl-5-methyl-1H-pyrazol-4-yl)amino]quinazolin-7-yl}piperidin-1-yl)-1-(2-fluorophenyl)ethan-1-ol], for which the “LRRK2 pIC50” value stood at 8.47.

Turning to `Cc1c(Nc2ncc3cc(Cl)c(C4CCN(C[C@H](O)c5ccccc5F)CC4)cc3n2)cnn1C1CC1` [Ex-4.203, (1R)-2-(4-{6-chloro-2-[(1-cyclopropyl-5-methyl-1H-pyrazol-4-yl)amino]quinazolin-7-yl}piperidin-1-yl)-1-(2-fluorophenyl)ethan-1-ol], the “LRRK2 pIC50” value is 8.03.

Consider `Cc1c(Nc2ncc3cc(Cl)c(C4CCN(C[C@H](O)c5cc(F)ccc5F)CC4)cc3n2)cnn1C1CC1` [Ex-4.204, (1R)-2-(4-{6-chloro-2-[(1-cyclopropyl-5-methyl-1H-pyrazol-4-yl)amino]quinazolin-7-yl}piperidin-1-yl)-1-(2,5-difluorophenyl)ethan-1-ol], for which the “LRRK2 pIC50” value amounted to 7.67.

Take `Cc1c(Nc2ncc3cc(Cl)c(C4CCN(C[C@@H](O)c5cc(F)ccc5F)CC4)cc3n2)cnn1C1CC1` [Ex-4.205, (1S)-2-(4-{6-chloro-2-[(1-cyclopropyl-5-methyl-1H-pyrazol-4-yl)amino]quinazolin-7-yl}piperidin-1-yl)-1-(2,5-difluorophenyl)ethan-1-ol]: the “LRRK2 pIC50” value was found to be 8.40.

As for `Cc1c(Nc2ncc3cc(Cl)c(C4CCN(C[C@H](O)c5cccc(F)c5F)CC4)cc3n2)cnn1C1CC1` [Ex-4.206, (1R)-2-(4-{6-chloro-2-[(1-cyclopropyl-5-methyl-1H-pyrazol-4-yl)amino]quinazolin-7-yl}piperidin-1-yl)-1-(2,3-difluorophenyl)ethan-1-ol], the “LRRK2 pIC50” value worked out at 7.90.

As to `Cc1c(Nc2ncc3cc(Cl)c(C4CCN(C[C@@H](O)c5cccc(F)c5F)CC4)cc3n2)cnn1C1CC1` [Ex-4.207, (1S)-2-(4-{6-chloro-2-[(1-cyclopropyl-5-methyl-1H-pyrazol-4-yl)amino]quinazolin-7-yl}piperidin-1-yl)-1-(2,3-difluorophenyl)ethan-1-ol], the “LRRK2 pIC50” value was 8.31.

Consider `Cc1c(Nc2ncc3cc(Cl)c(C4CCN(C[C@H](O)c5c(F)cccc5F)CC4)cc3n2)cnn1C1CC1` [Ex-4.208, (1R)-2-(4-{6-chloro-2-[(1-cyclopropyl-5-methyl-1H-pyrazol-4-yl)amino]quinazolin-7-yl}piperidin-1-yl)-1-(2,6-difluorophenyl)ethan-1-ol], for which the “LRRK2 pIC50” value amounted to 7.96.

On to `Cc1c(Nc2ncc3cc(Cl)c(C4CCN(C[C@@H](O)c5c(F)cccc5F)CC4)cc3n2)cnn1C1CC1` [Ex-4.209, (1S)-2-(4-{6-chloro-2-[(1-cyclopropyl-5-methyl-1H-pyrazol-4-yl)amino]quinazolin-7-yl}piperidin-1-yl)-1-(2,6-difluorophenyl)ethan-1-ol], for which the “LRRK2 pIC50” value came out at 8.16.

For `Cc1c(Nc2ncc3cc(Cl)c(C4CCN(CC5(O)CCOCC5)CC4)cc3n2)cnn1C1CC1` [Ex-4.210, 4-[(4-{6-chloro-2-[(1-cyclopropyl-5-methyl-1H-pyrazol-4-yl)amino]quinazolin-7-yl}piperidin-1-yl)methyl]oxan-4-ol], the “LRRK2 pIC50” value is 8.55.

In the case of `COC[C@H](O)CN1CCC(c2cc3nc(Nc4cnn(C5CC5)c4C)ncc3cc2Cl)CC1` [Ex-4.211, (2R)-1-(4-{6-chloro-2-[(1-cyclopropyl-5-methyl-1H-pyrazol-4-yl)amino]quinazolin-7-yl}piperidin-1-yl)-3-methoxypropan-2-ol], the “LRRK2 pIC50” value was 9.15.

Regarding `COC[C@@H](O)CN1CCC(c2cc3nc(Nc4cnn(C5CC5)c4C)ncc3cc2Cl)CC1` [Ex-4.212, (2S)-1-(4-{6-chloro-2-[(1-cyclopropyl-5-methyl-1H-pyrazol-4-yl)amino]quinazolin-7-yl}piperidin-1-yl)-3-methoxypropan-2-ol], the “LRRK2 pIC50” value worked out at 8.75.

In the case of `Cc1c(Nc2ncc3cc(Cl)c(C4CCN(C[C@H](O)c5ccc(F)cc5)CC4)cc3n2)cnn1C1CC1` [Ex-4.213, (1R)-2-(4-{6-chloro-2-[(1-cyclopropyl-5-methyl-1H-pyrazol-4-yl)amino]quinazolin-7-yl}piperidin-1-yl)-1-(4-fluorophenyl)ethan-1-ol], the “LRRK2 pIC50” value was determined as 8.50.

Take `Cc1c(Nc2ncc3cc(Cl)c(C4CCN(C[C@@H](O)c5ccc(F)cc5)CC4)cc3n2)cnn1C1CC1` [Ex-4.214, (1S)-2-(4-{6-chloro-2-[(1-cyclopropyl-5-methyl-1H-pyrazol-4-yl)amino]quinazolin-7-yl}piperidin-1-yl)-1-(4-fluorophenyl)ethan-1-ol]: the “LRRK2 pIC50” value came to 8.62.

`Cc1c(Nc2ncc3cc(Cl)c(C4CCN(CC5(O)CCC5)CC4)cc3n2)cnn1C1CC1` [Ex-4.215, 1-[(4-{6-chloro-2-[(1-cyclopropyl-5-methyl-1H-pyrazol-4-yl)amino]quinazolin-7-yl}piperidin-1-yl)methyl]cyclobutan-1-ol]: the “LRRK2 pIC50” value came out at 8.57.

Regarding `Cc1c(Nc2ncc3cc(Cl)c(C4CCN(C[C@H](O)CN5CCCC5=O)CC4)cc3n2)cnn1C1CC1` [Ex-4.216, 1-[(2S)-3-(4-{6-chloro-2-[(1-cyclopropyl-5-methyl-1H-pyrazol-4-yl)amino]quinazolin-7-yl}piperidin-1-yl)-2-hydroxypropyl]pyrrolidin-2-one], the “LRRK2 pIC50” value is listed as 9.05.

As to `Cc1c(Nc2ncc3cc(Cl)c(C4CCN(CC(C)(C)O)CC4)cc3n2)cnn1C1CC1` [Ex-4.217, 1-(4-{6-chloro-2-[(1-cyclopropyl-5-methyl-1H-pyrazol-4-yl)amino]quinazolin-7-yl}piperidin-1-yl)-2-methylpropan-2-ol], the “LRRK2 pIC50” value is recorded as 8.57.

On to `Cc1c(Nc2ncc3cc(Cl)c(C4CCN(C[C@]5(O)C[C@H](C#N)C5)CC4)cc3n2)cnn1C1CC1` [Ex-4.229, trans-3-[(4-{6-chloro-2-[(1-cyclopropyl-5-methyl-1H-pyrazol-4-yl)amino]quinazolin-7-yl}piperidin-1-yl)methyl]-3-hydroxycyclobutane-1-carbonitrile], for which the “LRRK2 pIC50” value turned out to be 8.95.

For the molecule `Cc1cc2cnc(Nc3cnn(C4(C)CC4)c3Cl)nc2cc1C1CCN(CCC#N)CC1` [Ex-5.2, 3-(4-(2-((5-chloro-1-(1-methylcyclopropyl)-1H-pyrazol-4-yl)amino)-6-methylquinazolin-7-yl)piperidin-1-yl)propanenitrile], the “LRRK2 pIC50” value is over 9.20.

Turning to `Cc1cc2cnc(Nc3cnn(C45CC(C4)C5)c3C)nc2cc1C1CCN(C2(C)COC2)CC1` [Ex-5.8, N-[1-(bicyclo[1.1.1]pentan-1-yl)-5-methyl-1H-pyrazol-4-yl]-6-methyl-7-[1-(3-methyloxetan-3-yl)piperidin-4-yl]quinazolin-2-amine], the “LRRK2 pIC50” value is over 9.20.

Regarding `N#Cc1cc2cnc(Nc3cnn(C4CC4)c3Cl)nc2cc1C1CCN(C2COC2)CC1` [Ex-6.3, 2-((5-chloro-1-cyclopropyl-1H-pyrazol-4-yl)amino)-7-(1-(oxetan-3-yl)piperidin-4-yl)quinazoline-6-carbonitrile], the “LRRK2 pIC50” value came to 9.07.

As to `FC1COCC1N1CC[C@@H](c2cc3nc(Nc4cnn(C5CC5(F)F)c4Cl)ncc3cc2Cl)C(F)C1` (some centres unmarked) [Ex-7.1], the “LRRK2 pIC50” value came to 9.01.

For `FC1COCC1N1CC[C@H](c2cc3nc(Nc4cnn(C5CC5(F)F)c4Cl)ncc3cc2Cl)C(F)C1` (some centres unmarked) [Ex-7.2], the “LRRK2 pIC50” value is on record as over 9.20.

For `FC(F)(F)Cn1ncc(Nc2ncc3cc(Cl)c(C4CCN(C5COC5)CC4)cc3n2)c1Cl` [Ex-8.1, 6-chloro-N-(5-chloro-1-(2,2,2-trifluoroethyl)-1H-pyrazol-4-yl)-7-(1-(oxetan-3-yl)piperidin-4-yl)quinazolin-2-amine], the “LRRK2 pIC50” value is on record as over 9.20.

The assay is the same for the next values; noted with them: G2019S LRRK2, 134 μM ATP (Km ATP), mean values; read-out: LRRK2 pIC50 (converted).
For the molecule `Cc1cc2cnc(Nc3cnn(C4(C)CC4)c3C)nc2cc1C1CCN(CCC#N)CC1` [Ex-5.1, 3-(4-(6-methyl-2-((5-methyl-1-(1-methylcyclopropyl)-1H-pyrazol4-yl)amino)quinazolin-7-yl)piperidin-1-yl)propanenitrile], the IC50 was under 0.631 nM.
